Legend:
[1] = test system: H9C2 cells; assay: GFP expression in H9C2 cells transfected with nucleic acid-lipid-peptide nanoparticles (flow cytometry); assay type: cell-based, rat; conditions: 300 ng/well; for cells GFP positive (transfection efficiency): 48 h post-transfection; for GFP positive cells (transfection efficiency): mRNA in lipid-peptide nanoparticles, 4 h post transfection, FIG. 13
Protocol: H9C2 cells, an immortalised cell line derived from embryonic rate heart tissue were cultured in Dulbecco's Modified Eagle's Medium (DMEM, Gibco) containing 10% fetal bovine serum (FBS, Gibco) and 1% pen/strep (Gibco).
Transfections in H9C2 cells were performed with a range of peptide:liposome:nucleic acid cargo ratios. Transfections were performed in a 96-well plate at a density of 8,000 cells per well seeded 24 h previously. Closed linear DNA/mRNA was maintained at a constant mass of 300 ng per well, while peptide component was altered. The molar ratio of the cationic lipid C18 to the phospholipid DOPE was kept at 2:1 (DD 2:1), while cholesterol was added at a molar percentage of 10% of the total lipid content. The mass ratio of closed linear DNA/mRNA:liposome:peptide was maintained at 1:5:2.52.
Transfection complexes were formed via electrostatic interaction by vigorous pipetting, before diluting in a final volume of 200 ul per well, with a DNA concentration of 1.5 ng/ul. All dilutions were performed with OptiMEM reduced serum media. Controls included cells with no transfection complexes added (OptiMEM only), complexes targeting a different cell, or complexes with no targeting sequence component.
Transfection complexes were incubated for 30 min at RT before adding to cells. All conditions were performed in triplicate. Cells were incubated at 37° C. for 4 hours, before replacing media with growth media.
In the case of mRNA, 4 h post-transfection, the cells were rinsed in PBS, before incubation in 0.05% Trypsin EDTA (Gibco) to detach the cells. Cells were then resuspended in PBS for analysis by flow cytometry. In the case of closed linear DNA, 48 h post-transfection, the cells were rinsed in PBS, before incubation in 0.05% Trypsin EDTA (Gibco) to detach the cells. Cells were then resuspended in PBS for analysis by flow cytometry.

[2] = test system: HEK293 cells; assay: GFP expression in HEK293 cells transfected with plasmid DNA-peptide complexes or DNA-lipid-peptide nanoparticles; assay type: cell-based; conditions: particles formed using DNA and peptide only, 48 h, FIG. 5
Protocol: GFP expression was imaged 48 h post transfection. n=3 in all experiments, error bars=S.D.
The high expression in C2C12 compared with HEK293 cells is particularly impressive owing to the high transfection efficiency achievable in HEK293 cells.

[3] = test system: C2C12 cells; assay: GFP expression in C2C12 cells transfected with pDNA:lipid:peptide nanoparticles (flow cytometry, microscopy); assay type: cell-based, mouse; conditions: 48 h; for GFP transfection efficiency: pDNA:lipid:peptide, MD2 in different conformations, FIG. 4; for GFP transfection efficiency / cells expressing GFP (GFP expression level, transfection efficiency): DD 2:1 with 20% cholesterol; for cells expressing GFP (GFP expression level, transfection efficiency): pDNA:lipid:peptide nanoparticles, different targeting sequences, FIG. 2
Protocol: C2C12 cells, an immortalised mouse myoblast line, were cultured in Dulbecco's Modified Eagle's Medium (DMEM, Gibco) containing 10% fetal bovine serum (FBS, Gibco) and 1% pen/strep (Gibco).
Transfections in C2C12 cells were performed with a range of peptide:liposome:nucleic acid cargo ratios. Transfections were performed in a 96-well plate at a density of 8,000 cells per well seeded 24 h previously. Charge and mass ratio of components in the transfection complex varied; DNA was maintained at a constant mass of 300 ng per well, while lipid component was altered. In one case, the molar ratio of the cationic lipid C18 to the phospholipid DOPE was kept at 1:1 (DD). In another case, the molar ratio of the cationic lipid C18 to the phospholipid DOPE was kept at 2:1 (DD 2:1), while cholesterol was added at a molar percentage of 10 or 20% of the total lipid content. The mass ratio of linear DNA:liposome:peptide was maintained at 1:3:3, while the muscle-cell binding peptides were in some cases altered.
Transfection complexes were formed via electrostatic interaction by vigorous pipetting, before diluting in a final volume of 200 μl per well, with a DNA concentration of 1.5 ng/μl. All dilutions were performed with OptiMEM reduced serum media. Controls included cells with no transfection complexes added (OptiMEM only).
Transfection complexes were incubated for 30 min at RT before adding to cells. All conditions were performed in triplicate. Cells were incubated at 37° C. for 4 hours, before replacing media with growth media. 48 h post-transfection, the cells were rinsed in PBS, before incubation in 0.05% Trypsin EDTA (Gibco) to detach the cells. Cells were then re-suspended in PBS for analysis by flow cytometry.

[4] = Biophysical characterisation of DNA-lipid-peptide nanoparticle (DLS, ELS, MADLS); assay type: physicochemical
Protocol: The size in nm by Dynamic Light Scattering (DLS), zeta potential in mV by Electrophoretic Light Scattering (ELS), and concentration of particles per ml by Multi-Angle Dynamic Light Scattering (MADLS) of the hpDNA-lipid-peptide nanoparticles was determined using the Zetasizer Ultra (Malvern). Complexes were prepared as before, except formulated in nuclease-free water rather than Opti-MEM. Samples containing 0.7 μg plasmid were diluted in 1 ml for analysis.

[5] = test system: C2C12 cells; assay: GFP expression in C2C12 cells transfected with closed linear DNA:lipid:peptide nanoparticles; assay type: cell-based, mouse; conditions: DOTMA/DOPE 2:1 with 10% cholesterol, 300 ng/well, 48 h, FIG. 20
Protocol: GFP expression was measured 48 h post transfection. n=3 in all experiments, error bars=S.D. Nanoparticles containing no peptide were used as a control. […] Nanoparticles containing no peptide in their formulation lead to a transfection efficiency of 12% indicating the lowest transfection efficiency in treated cells.
(§1) Nanoparticles were formulated manually by pipetting following a mass ratios of 1:3:2.1.6 (closed linear DNA:lipid:peptide). Firstly, the closed linear DNA, lipid and peptide were suspended in Ultra pure water in volumes of 60 ul, 60 ul and 80 ul, respectively. Components were mixed following the order-lipid to peptide, closed linear DNA to lipid+peptide mix. Nanoparticles were allowed to incubate for 30 minutes at room temperature. All samples were diluted in serum-free media before transferring them onto cells. C2C12 cells were transfected with 300 ng/well of closed linear DNA. The microplate was centrifuged at 12000 rpm for 5 minutes and incubated at 37 C for 4 hours. After 4 hours, cells were trypsinised and prepared for Flow Cytometry analysis.

[6] = test system: C2C12 cells; assay: GFP expression in C2C12 cells transfected with mRNA:lipid:peptide nanoparticles; assay type: cell-based, mouse; conditions: mRNA:lipid:peptide 1:5:2.5, DOTMA/DOPE 2:1 with 10% cholesterol, 500 ng/well, 4 h, FIG. 16
Protocol: Shown in FIG. 16 is GFP expression in C2C12 cells transfected with mRNA derived from linearised plasmid encapsulated in lipid-peptide nanoparticles.
as §1, with “1:5:2.5 (mRNA:lipid:peptide).” for “1:3:2.1.6 (closed linear DNA:lipid:peptide).”, “components mRNA,” for “closed linear DNA,”, “mRNA” for “closed linear DNA”, “500” for “300”, “mRNA nanoparticles.” for “closed linear DNA.”, “FAQs.” for “Flow Cytometry analysis.”

[7] = Size and polydispersity index of closed linear DNA-lipid-peptide nanoparticles by DLS (FIG. 15); assay type: physicochemical; conditions: C18/CHOL/DOPE (58/10/32)
Protocol: Dynamic Light Scattering (DLS) measurements were conducted using Zetasizer Ultra (Malvern Panalytical). Each bar represents average value of three measurements (n=3). Complexes were prepared as before, except formulated in nuclease-free water rather than Opti-MEM. Samples containing 0.7 μg closed linear DNA were diluted in 1 ml for analysis. Particles ranged from 37 nm (MD2L) to 57 nm (MD2CC), with PDI values ranging from 0.12 to 0.28. Liposomes encapsulating closed linear DNA with no targeting ligand were used as a control, with a larger size of 70 nm and PDI of 0.13.

[8] = Size and PDI of mRNA:lipid:peptide nanoparticles (FIG. 19); assay type: physicochemical; conditions: DOTMA/DOPE 2:1 with 10% cholesterol
Excerpt: Table presented in FIG. 19 presents size (nm) and polydispersity index (PDI) values for the mRNA:lipid:peptide nanoparticles. Sizes of fully formed nanoparticles range from 31 nm for MD2, to 37 nm for MD3 while nanoparticles formulated without a peptide are 61 nm. PDI value is low across all samples which translates into low polydispersity of the nanoparticle population.

[9] = test system: HEK293 cells; assay: In-vitro transfection efficiency in HEK293 cells of closed linear DNA nanoparticles stored at +4° C. (luciferase assay); assay type: cell-based; conditions: 300 ng closed linear DNA nanoparticles stored up to 40 weeks at +4° C., tested every 5 weeks, FIG. 22B
Protocol: Nanoparticles were transfected in HEK293 cells at 5 week intervals. GFP expression was measured 48 h post transfection. n=3 in all experiments.
Shown in FIG. 22B is relative luminescence units per microgram of protein (RLU/mg of protein) of HEK293 cells transfected with closed linear DNA nanoparticles stored for 40 weeks at +4° C. […] Cells were transfected with 300 ng of closed linear DNA nanoparticles every 5 weeks.

[10] = Size and PDI of miRNA-lipid-peptide complexes, hand-mixing vs microfluidics (DLS); assay type: physicochemical; conditions: FIG. 23; for size of complexes: C18/DOPE 2:1 with 10% cholesterol
Excerpt: Shown in FIG. 23 is size and polydispersity index (PDI) of miDNA-lipid-peptide complexes formulated through two different methods: hand-mixing—where complexes are formed by vigorous pipetting using a micropipette; or through a microfluidics platform. The lipid components comprised of C18/DOPE at a molar ratio of 2:1 with 10% cholesterol. The final formulation was following a mass ratio of 1:5 closed linear DNA:liposomes with N/P ratio of 6 driven by the peptide C1L-N-16-K16GAAPWHLSSQYSRT (SEQ ID NO: 49).
The hand-mixed complexes were formed by firstly suspending each of the components in ultra pure water, with the following mixing order-liposomes to peptide, closed linear DNA to liposomes+peptide complexes. Nanoparticles were allowed to incubate for 30 minutes at room temperature prior to a further dilution in water required for biophysical charaterisation by a DLS system (Zetasizer Ultra-Malvern).
For complexes formed through a microfluidics device (Nanoassemblr Ignite-Precision Nanosystems), lipid components were suspended in 99% pure ethanol at identical ratios to hand-mixed particles. Lipid components in ethanol were loaded onto the instrument along with miRNA and peptide C1L, both suspended in water. A flow rate ratio (FRR) of 1:3 of miRNA to lipid was mixed together at a total flow rate (TFR) of 12 mL/min prior to the addition of the peptide (FRR of 1:1, TFR 12 mL/min). The complexes formulated using the Nanoassemblr we then dialysed for 4 h using a Slide-a-Lyzer dialysis cassette (ThermoFisher) to remove residual ethanol.

[11] = closed linear DNA-lipid-peptide nanoparticles, FIG. 11
[12] = plasmid DNA-lipid-peptide nanoparticles, FIG. 10

Substance: KKKKKKKKKKKKKKKKGACRRQPPRSISSHPC [MD2C]
- cells GFP positive (transfection efficiency) [1, 11]: 6%
- cells GFP positive (transfection efficiency) [1, 12]: 26%
- GFP expression visualised by microscopy [2]: No GFP expression
- GFP transfection efficiency ([3]; C2C12): 30.08%
- GFP expression visualised by microscopy ([3]; C2C12, particles formed using DNA and peptide only, FIG. 5): some GFP expression
- GFP expression, C2C12 compared to HEK293 cells (specificity) ([3]; fully formed nanoparticle with lipid DD with 10% cholesterol, FIG. 5): much higher in C2C12 cells as compared to HEK293 cells
- size of the particle (DLS) ([4]; DNA-lipid-peptide nanoparticle, C18 (DOTMA) DOPE 10% cholesterol, FIG. 6A): 89.4 nm
- zeta potential (ELS) ([4]; DNA-lipid-peptide nanoparticle, C18 (DOTMA) DOPE 10% cholesterol, FIG. 6B): 24.8 mV
- particle titre (MADLS) ([4]; accounting for the 1 in 100 dilution, FIG. 6E, F): 10 E12 particles per ml

Substance: KKKKKKKKKKKKKKKKRVRRGACSKTFNTHPQSTPC [MD3CC]
- cells expressing GFP (transfection efficiency) [5]: 25%

Substance: ASSLNIA [MD1]
- cells expressing GFP (GFP expression level, transfection efficiency) ([3]; C2C12): 73%
- cells expressing GFP (transfection efficiency) [6]: 73%

Substance: KKKKKKKKKKKKKKKKRVRRGACASSLNIAC [MD1CC]
- cells expressing GFP (transfection efficiency) [5]: 29%

Substance: KKKKKKKKKKKKKKKKRVRRGACRRQPPRSISSHPC [MD2CC]
- GFP transfection efficiency ([3]; C2C12): 50.06%
- size (DLS) [7]: 57 nm

Substance: KKKKKKKKKKKKKKKKKKKKKKKKKKKKKKGACRRQPPRSISSHPC [MD2C-K30, targeting peptide named MD2C-K30]
- cells GFP positive (transfection efficiency) [1, 11]: 5%

Substance: KKKKKKKKKKKKKKKKGAWLSEAGPVVTVRALRGTGSW [C2L-N-16]
- GFP positive cells (transfection efficiency) [1]: 26%

Substance: SKTFNTHPQSTP [MD3]
- size [8]: 37 nm
- cells expressing GFP (GFP expression level, transfection efficiency) ([3]; C2C12): 22.68%
- cells expressing GFP (transfection efficiency) [6]: 72%

Substance: KKKKKKKKKKKKKKKKGARRQPPRSISSHP [MD2L]
- GFP positive cells (transfection efficiency) [1]: 33%
- cells GFP positive (transfection efficiency) [1, 12]: 27%
- GFP transfection efficiency ([3]; C2C12): 8.24%
- size (DLS) [7]: 37 nm
- transfection efficiency after storage (luminescence signal, luciferase assay) [9]: sustained luminescence signal across all time points

Substance: KKKKKKKKKKKKKKKKGAAPWHLSSQYSRT [C1L-N-16]
- size of complexes ([10]; hand-mixed): 60 nm
- size of complexes ([10]; microfluidics): 40 nm
- PDI ([10]; hand-mixed): 0.23
- PDI ([10]; microfluidics): 0.16

Substance: RRQPPRSISSHP [MD2]
- size [8]: 31 nm
- cells expressing GFP (GFP expression level, transfection efficiency) ([3]; C2C12): 50.1%
- cells expressing GFP (transfection efficiency) [6]: 59%

Substance: KKKKKKKKKKKKKKKKGAASSLNIA [MD1L]
- cells GFP positive (transfection efficiency) [1, 12]: 20%

— US20240358846A1, “Nanoparticles and Peptides for the Delivery of Cargos to Muscle Cells” (4BASEBIO, S.L.U., priority 2021, published 2024)
